According to patent US20230278972A1, “SUBSTITUTED HALOALKYL SULFONANILIDE HERBICIDES” (FMC Corporation, priority 2020, published 2023):

Assays:
Type in all cases: in vivo
[1] = test system: pigweed (Amaranthus retroflexus); assay: Test A preemergence, pigweed; conditions: for Pigweed plant response rating: 125 g ai/ha, visual injury on 0 to 100 scale (0 no effect, 100 complete control), approximately 10 days; for Plant response rating, Pigweed: 0 to 100 scale (0 no effect, 100 complete control)
Method in brief: (§1)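 After sowing into a sand-amended loam, pots for the preemergence test were treated by spraying directly onto soil. In parallel, seedlings at the one- to two-leaf stage and 2 to 10 cm tall were treated postemergence with the identical surfactant-containing formulation.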

[2] = test system: Foxtail, Giant (giant foxtail, Setaria faberi); assay: Test A postemergence, Foxtail, Giant; conditions: Postemergence
Method in brief: (§2)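 Pots: loam soil/sand blend. Pre: directed soil spray at planting. Post: plants 2–10 cm, 1–2 leaf stage. Formulation: non-phytotoxic solvent + surfactant.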

[3] = test system: pigweed (Amaranthus retroflexus); assay: Test A postemergence, pigweed; conditions: Postemergence
Method in brief: as §2

[4] = test system: galium (catchweed bedstraw, Galium aparine); assay: Test A postemergence, galium; conditions: Postemergence
Method in brief: as §1

[5] = test system: wheat (Triticum aestivum); assay: Test A postemergence, wheat; conditions: Postemergence
Method in brief: as §1

[6] = test system: Ryegrass, Italian (Italian ryegrass, Lolium multiflorum); assay: Test A preemergence, Ryegrass, Italian; conditions: Preemergence; for Ryegrass, Italian plant response rating: 125 g ai/ha, visual injury on 0 to 100 scale (0 no effect, 100 complete control), approximately 10 days; for Plant response rating, Ryegrass, Italian: 0 to 100 scale (0 no effect, 100 complete control)
Method in brief: as §2

[7] = test system: ragweed (common ragweed, Ambrosia artemisiifolia); assay: Test A postemergence, ragweed; conditions: Postemergence
Method in brief: as §2

kochia (Bassia scoparia) [8] = assay: Test A preemergence, kochia; conditions: Preemergence; for Kochia plant response rating: 125 g ai/ha, visual injury on 0 to 100 scale (0 no effect, 100 complete control), approximately 10 days; for Plant response rating, Kochia: 0 to 100 scale (0 no effect, 100 complete control)
Method in brief: as §2

kochia (Bassia scoparia) [9] = assay: Test A postemergence, kochia; conditions: Postemergence
Method in brief: as §2

[10] = test system: blackgrass (Alopecurus myosuroides); assay: Test A postemergence, blackgrass; conditions: Postemergence
Method in brief: as §2

[11] = test system: barnyardgrass (Echinochloa crus-galli); assay: Test A postemergence, barnyardgrass; conditions: Postemergence
Method in brief: as §1

[12] = test system: Foxtail, Giant (giant foxtail, Setaria faberi); assay: Test A preemergence, Foxtail, Giant; conditions: Preemergence; for Foxtail, Giant plant response rating: 125 g ai/ha, visual injury on 0 to 100 scale (0 no effect, 100 complete control), approximately 10 days; for Plant response rating, Foxtail, Giant: 0 to 100 scale (0 no effect, 100 complete control)
Method in brief: as §2

[13] = test system: Ryegrass, Italian (Italian ryegrass, Lolium multiflorum); assay: Test A postemergence, Ryegrass, Italian; conditions: Postemergence
Method in brief: as §2

[14] = test system: ragweed (common ragweed, Ambrosia artemisiifolia); assay: Test A preemergence, ragweed; conditions: Preemergence; for Ragweed plant response rating: 125 g ai/ha, visual injury on 0 to 100 scale (0 no effect, 100 complete control), approximately 10 days; for Plant response rating, Ragweed: 0 to 100 scale (0 no effect, 100 complete control)
Method in brief: as §2

[15] = test system: barnyardgrass (Echinochloa crus-galli); assay: Test A preemergence, barnyardgrass; conditions: Preemergence; for Barnyardgrass plant response rating: 125 g ai/ha, visual injury on 0 to 100 scale (0 no effect, 100 complete control), approximately 10 days; for Plant response rating, Barnyardgrass: 0 to 100 scale (0 no effect, 100 complete control)
Method in brief: as §2

corn (Zea mays) = assay: Test A postemergence, corn; conditions: Postemergence
Method in brief: as §2

[16] = 125 g ai/ha, visual injury approx. 10 days, 0 to 100 scale (0 no effect, 100 complete control)
[17] = 500 g ai/ha, visual injury vs untreated controls after approx. 10 days, 0 to 100 scale (0 no effect, 100 complete control)
[18] = 125 g ai/ha, 0 to 100 scale (0 no effect, 100 complete control)
[19] = 31 g ai/ha, visual injury, approx. 10 days
[20] = 31 g ai/ha, 0 to 100 scale (0 no effect, 100 complete control)
[21] = 31 g ai/ha, visual injury on 0 to 100 scale (0 no effect, 100 complete control), approx. 10 days

Row | Compound | Pigweed plant response rating [1] | Plant response rating, Foxtail, Giant [2, 16] | Plant response rating, Pigweed [3, 18] | Plant response rating, Galium [4, 16] | Plant response rating, Wheat [5, 18] | Ryegrass, Italian plant response rating [6] | Kochia plant response rating (kochia (Bassia scoparia) [8]) | Plant response rating, Kochia (kochia (Bassia scoparia) [9]; [16]) | Plant response rating, Blackgrass [10, 16] | Plant response rating, Barnyardgrass [11, 16] | Foxtail, Giant plant response rating [12] | Ragweed plant response rating [14] | Barnyardgrass plant response rating [15] | Plant response rating, Corn (corn (Zea mays); [16]) | Plant response rating, Pigweed [1, 19] | Plant response rating, Ryegrass, Italian [6, 19] | Plant response rating, Kochia (kochia (Bassia scoparia) [8]; [19]) | Plant response rating, Foxtail, Giant [12, 19] | Plant response rating, Ragweed [14, 19] | Plant response rating, Barnyardgrass [15, 19] | also measured
1 | Cc1cc(C)c(N(S(=O)(=O)C(F)(F)F)S(=O)(=O)C(F)(F)F)cc1C1=NOC2(CCC(C)(C)CC2)C1 [Compound 139] | 20 | 0 | 40 | 50 | 0 | 50 | 0 | 0 | 0 | 0 | 0 | 0 | 0 | 0 | – | – | – | – | – | – | Plant response rating, Pigweed ([1]; 500 g ai/ha): 70; Foxtail, Giant plant response rating [2, 17]: 0; Pigweed plant response rating [3, 17]: 80; Galium plant response rating [4, 17]: 80; Wheat plant response rating [5, 17]: 0; Plant response rating, Ryegrass, Italian ([6]; 500 g ai/ha): 70; Plant response rating, Ragweed [7, 18]: 0; Ragweed plant response rating [7, 17]: 0; Plant response rating, Kochia (kochia (Bassia scoparia) [8]; 500 g ai/ha): 60; Kochia plant response rating (kochia (Bassia scoparia) [9]; [17]): 50; Blackgrass plant response rating [10, 17]: 0; Barnyardgrass plant response rating [11, 17]: 0; Plant response rating, Foxtail, Giant ([12]; 500 g ai/ha): 20; Plant response rating, Ryegrass, Italian [13, 18]: 0; Ryegrass, Italian plant response rating [13, 17]: 0; Plant response rating, Ragweed ([14]; 500 g ai/ha): 30; Plant response rating, Barnyardgrass ([15]; 500 g ai/ha): 30; Corn plant response rating (corn (Zea mays); [17]): 0
2 | CSC1CCCN(C(=O)c2cc(NS(=O)(=O)C(F)(F)F)c(C)cc2C)C1 (centres unmarked) [Compound 3] | 100 | 0 | – | 90 | – | 70 | 80 | 40 | 0 | 30 | 50 | 70 | 50 | 30 | 90 | 20 | 30 | 20 | 0 | 0 | Plant response rating, Foxtail, Giant [2, 20]: 0; Plant response rating, Pigweed [3, 20]: 70; Plant response rating, Pigweed [3, 16]: 90; Plant response rating, Galium [4, 20]: 90; Plant response rating, Wheat [5, 20]: 30; Plant response rating, Wheat [5, 16]: 50; Plant response rating, Ragweed [7, 20]: 40; Plant response rating, Ragweed [7, 16]: 80; Plant response rating, Kochia (kochia (Bassia scoparia) [9]; [20]): 10; Plant response rating, Blackgrass [10, 20]: 0; Plant response rating, Barnyardgrass [11, 20]: 0; Plant response rating, Ryegrass, Italian [13, 20]: 0; Plant response rating, Ryegrass, Italian [13, 16]: 0; Plant response rating, Corn (corn (Zea mays); [20]): 20
3 | Cc1cc(C)c(N(S(=O)(=O)C(F)(F)F)S(=O)(=O)C(F)(F)F)cc1C(=O)N1CCC(C#N)CC1 [Compound 161] | 100 | – | 80 | – | 0 | 100 | 90 | – | – | – | 80 | 90 | 100 | – | 70 | 70 | 30 | 40 | 90 | 20 | Plant response rating, Foxtail, Giant [2, 21]: 0; Plant response rating, Foxtail, Giant [2, 18]: 20; Plant response rating, Pigweed [3, 21]: 70; Plant response rating, Galium [4, 21]: 30; Plant response rating, Galium [4, 18]: 90; Plant response rating, Wheat [5, 21]: 0; Plant response rating, Ragweed [7, 21]: 40; Plant response rating, Ragweed [7, 18]: 70; Plant response rating, Kochia (kochia (Bassia scoparia) [9]; [21]): 10; Plant response rating, Kochia (kochia (Bassia scoparia) [9]; [18]): 50; Plant response rating, Blackgrass [10, 21]: 0; Plant response rating, Blackgrass [10, 18]: 0; Plant response rating, Barnyardgrass [11, 21]: 40; Plant response rating, Barnyardgrass [11, 18]: 80; Plant response rating, Ryegrass, Italian [13, 21]: 20; Plant response rating, Ryegrass, Italian [13, 18]: 20; Plant response rating, Corn (corn (Zea mays); [21]): 10; Plant response rating, Corn (corn (Zea mays); [18]): 50
4 | COC1CCCN(C(=O)c2cc(NS(=O)(=O)C(F)(F)F)c(C)c(F)c2C)C1 (centres unmarked) [Compound 98] | 100 | 20 | – | 90 | – | 50 | 40 | 20 | 0 | 50 | 100 | 80 | 90 | 10 | 70 | 30 | 40 | 80 | 30 | 0 | Plant response rating, Foxtail, Giant [2, 20]: 0; Plant response rating, Pigweed [3, 20]: 30; Plant response rating, Pigweed [3, 16]: 80; Plant response rating, Galium [4, 20]: 60; Plant response rating, Wheat [5, 20]: 0; Plant response rating, Wheat [5, 16]: 40; Plant response rating, Ragweed [7, 20]: 50; Plant response rating, Ragweed [7, 16]: 60; Plant response rating, Kochia (kochia (Bassia scoparia) [9]; [20]): 10; Plant response rating, Blackgrass [10, 20]: 20; Plant response rating, Barnyardgrass [11, 20]: 0; Plant response rating, Ryegrass, Italian [13, 20]: 30; Plant response rating, Ryegrass, Italian [13, 16]: 30; Plant response rating, Corn (corn (Zea mays); [20]): 0
